Structures can show the parent of a compound that is named as a salt.
What was measured:
cats = assay: Determination of the hypotensive and positive inotropic activity in the cat; type: in vivo; conditions: for change in vivo at 0.5 mg/kg / change in vivo at 0.1 mg/kg / change in vivo at 2 mg/kg: Felis catus, iv, read-out: Change of dp/dt in %
Method: TEST 2. DETERMINATION OF THE HYPOTENSIVE AND POSITIVE INOTROPIC ACTIVITY IN THE CAT
The tests were performed in cats which were anesthetized with pentobarbital sodium (40 mg/kg i.p.). The animals breathed spontaneously. The arterial blood pressure was measured in the aorta abdominalis by a Statham pressure transducer (P 23 Dc). The positive inotropic effect was determined by measuring the pressure in the left […] by means of a catheter tipmanometer (Millar PC 350 A). This contractility parameter dp/dtmax was registered by means of an analog differentiating circuit. The substances under test were injected into a vena femoralis. Physiological sodium […] solution or polydiol 200 was used as solvent.

thrombocyte aggregation = assay: Determination of the thrombocyte aggregation according to Born and Cross (collagen-provoked, platelet-rich plasma); type: cell-based, healthy test persons; conditions: collagen-induced aggregation
Method: TEST 1. DETERMINATION OF THE THROMBOCYTE AGGREGATION ACCORDING TO BORN AND CROSS [J. PHYSIOL. 170, 397 (1964)].
The thrombocyte aggregation was measured in platelet-rich plasma of healthy test persons. The decrease of the optical density was photometrically measured and recorded after addition of commercial collagen (Sigma, St. Louis, Mo., USA) which contained […] of collagen-fibrils per ml. The velocity of aggregation (Vmax) was determined by the angle of inclination of the density curve. The point of the curve, where the most light was transmitted, served for the determination of the optical density (o.d.). To provoke maximum aggregation, approximately 0.01 ml of the collagen solution was added to 1 ml of platelet-rich plasma.

white mice = assay: Acute toxicity, single oral dose; type: in vivo; conditions: white mice, 14 days observation
Method: (§1) The acute toxicity of the substances tested was determined in white mice after oral adminstration of a single dose (observation time: 14 days).

[1] = Acute toxicity, single oral dose; type: in vivo; conditions: mouse, in vivo, po; read-out: Acute toxicity mg/kg p.o.
Method: as §1

[2] = 0.5 mg/kg i.v., initial phase before decrease

Structure (SMILES) | Change of blood pressure, first value of the pair (before the slash) (cats; 0.5 mg/kg i.v.) | Change of blood pressure, second value of the pair (after the slash) (cats; 0.5 mg/kg i.v.) [mgm Hg] | Duration of action (cats; 0.5 mg/kg i.v.) [min] | change in vivo at 0.5 mg/kg (cats; 0.5 mg/kg i.v.) [%] | EC50 (thrombocyte aggregation) [nM] | Change of blood pressure, second value of the pair (after the slash) (cats; 0.1 mg/kg i.v.) [mgm Hg] | Duration of action (cats; 0.1 mg/kg i.v.) [min] | change in vivo at 0.1 mg/kg (cats; 0.1 mg/kg i.v.) [%] | LD50 at 336 h [1] [mg/kg] | Change of blood pressure, first value of the pair (before the slash) (cats; 0.1 mg/kg i.v.) [mgm Hg] | further results
COc1ccc(-c2nc3cc(C4=NNC(=O)C(C)C4)ccc3[nH]2)c(OC)c1 (stereo not shown) [O, 2-(2,4-Dimethoxy-phenyl)-5(6)-(4-methyl-3-oxo-4,5-dihydro-2H-6-pyridazinyl)-benzimidazole, reference compound] | +15 mgm Hg | 6 | 2 | 10 |  |  |  |  |  |  | 
Cc1nc2cc(C3=NNC(=O)CC3C)ccc2n1CCC(C)C (stereo not shown) [L, 1-(3-Methyl-butyl)-2-methyl-5-(5-methyl-3-oxo-4,5-dihydro-2H-6-pyridazinyl)-benzimidazole] |  |  |  |  | 50 |  |  |  |  |  | 
COc1ccc(-c2nc3ccc(C4=NNC(=O)CC4C)cc3[nH]2)cc1 (stereo not shown) [G, 2-(4-Methoxy-phenyl)-5(6)-(5-methyl-3-oxo-4,5-dihydro-2H-6-pyridazinyl)-benzimidazole] | -18 mgm Hg | -18 | > 72 | 64 | 80 | 0 | > 26 | 23 | ~600 |  | animals died (white mice; 600 mg/kg p.o.): 3 out of 6
Cc1ccc(-c2nc3cc(C4=NNC(=O)CC4C)ccc3[nH]2)cc1 (stereo not shown) [H, 2-(4-Methyl-phenyl)-5(6)-(5-methyl-3-oxo-4,5-dihydro-2H-6-pyridazinyl)-benzimidazole] | -10 mgm Hg | -10 | > 69 | 118 |  |  |  |  | > 600 |  | duration of decrease of blood pressure (cats; 0.5 mg/kg i.v., decrease after 1 minute): > 50 min; initial increase of blood pressure, first value of the pair (cats; [2]): 33 mgm Hg; initial increase of blood pressure, second value of the pair (cats; [2]): 18 mgm Hg; animals died (white mice; 600 mg/kg p.o.): 0 out of 6
CCCC(C)c1nc2cc(C3=NNC(=O)CC3C)ccc2[nH]1 (stereo not shown) [I, 2-(2-Pentyl)-5(6)-(5-methyl-3-oxo-4,5-dihydro-2H-6-pyridazinyl)-benzimidazole hydrochloride] | -28 mgm Hg | -33 | > 52 | 103 |  | -13 | > 53 | 83 |  | -10 | 
CC1CC(=O)NN=C1c1ccc2[nH]c(C(F)(F)F)nc2c1 (stereo not shown) [B, 2-Trifluoromethyl-5(6)-(5-methyl-3-oxo-4,5-dihydro-2H-6-pyridazinyl)-benzimidazole] | -49 mgm Hg | -43 | > 99 | 143 | 100 | -35 | > 55 | 91 | > 450 | -65 | animals died (white mice; 450 mg/kg p.o.): 0 out of 6
COc1ccc(-c2nc3cc(C4=NN(C)C(=O)C(C)C4)ccc3[nH]2)cc1 (stereo not shown) [Q, 2-(4-Methoxy-phenyl)-5(6)-(2,4-dimethyl-3-oxo-4,5-dihydro-2H-6-pyridazinyl)-benzimidazole, reference compound] | -12 mgm Hg | -12 | 11 | -16 |  |  |  |  |  |  | Change of blood pressure, first value of the pair (before the slash) (cats; 2.0 mg/kg i.v.): -40 mgm Hg; Duration of action (cats; 2.0 mg/kg i.v.): 3 min; change in vivo at 2 mg/kg (cats; 2.0 mg/kg i.v.): -26%
Cc1nc2cc(C3=NNC(=O)C(C)C3)ccc2[nH]1 (stereo not shown) [N, 2-Methyl-5(6)-(4-methyl-3-oxo-4,5-dihydro-2H-6-pyridazinyl)-benzimidazole, reference compound] |  | 3 | 22 | 23 | 1000 |  |  |  | > 250 |  | animals died (white mice; 250 mg/kg p.o.): 0 out of 10
CC1CC(=O)NN=C1c1ccc2[nH]cnc2c1 (stereo not shown) [C, 5(6)-(5-Methyl-3-oxo-4,5-dihydro-2H-6-pyridazinyl)-benzimidazole] | -55 mgm Hg | -48 | > 172 | 159 | 120 |  |  |  |  |  | 
COc1ccc(-c2nc3cc(C4=NNC(=O)CC4C)ccc3[nH]2)c(OC)c1 (stereo not shown) [Compound E, 2-(2,4-Dimethoxy-phenyl)-5(6)-(5-methyl-3-oxo-4,5-dihydro-2H-6-pyridazinyl)-benzimidazole] | -28 mgm Hg | -33 | > 55 | 89 |  |  |  |  |  |  | 
COc1ccc(-c2nc3cc(C4=NNC(=O)C(C)C4)ccc3[nH]2)cc1 (stereo not shown) [P, 2-(4-Methoxy-phenyl)-5(6)-(4-methyl-3-oxo-4,5-dihydro-2H-6-pyridazinyl)-benzimidazole, reference compound] | -10 mgm Hg | -10 | 1 | 9 |  |  |  |  |  |  | Change of blood pressure, first value of the pair (before the slash) (cats; 2.0 mg/kg i.v.): -35 mgm Hg; Change of blood pressure, second value of the pair (after the slash) (cats; 2.0 mg/kg i.v.): -35 mgm Hg; Duration of action (cats; 2.0 mg/kg i.v.): 1 min; change in vivo at 2 mg/kg (cats; 2.0 mg/kg i.v.): 5%
COc1ccc(-c2nc3cc(C4=NNC(=O)CC4C)ccc3n2C)cc1 (stereo not shown) [K, 1-Methyl-2-(4-methoxy-phenyl)-5-(5-methyl-3-oxo-4,5-dihydro-2H-6-pyridazinyl)-benzimidazole] | -28 mgm Hg | -34 | > 40 | 50 |  |  |  |  |  |  | 
CC1CC(=O)NN=C1c1ccc2[nH]c(-c3ccccc3F)nc2c1 (stereo not shown) [D, 2-(2-Fluoro-phenyl)-5(6)-(5-methyl-3-oxo-4,5-dihydro-2H-6-pyridazinyl)-benzimidazole] |  | -10 | > 69 | 107 |  |  |  |  | > 600 |  | animals died (white mice; 600 mg/kg p.o.): 0 out of 6
Cc1nc2cc(C3=NNC(=O)CC3C)ccc2[nH]1 (stereo not shown) [Compound A, 2-Methyl-5(6)-(5-methyl-3-oxo-4,5-dihydro-2H-6-pyridazinyl)-benzimidazole] | -35 mgm Hg | -42 | > 187 | 116 | 10 | -24 | > 24 | 53 | > 600 | -26 | animals died (white mice; 600 mg/kg p.o.): 1 out of 3
CSc1nc2cc(C3=NNC(=O)CC3C)ccc2[nH]1 (stereo not shown) [F, 2-Methylmercapto-5(6)-(5-methyl-3-oxo-4,5-dihydro-2H-6-pyridazinyl)-benzimidazole] | -48 mgm Hg | -66 | > 32 | 50 |  | -40 | > 28 | 51 |  | -36 | 
Cc1nc2cc(C3=NNC(=O)CC3C)ccc2n1Cc1ccccc1 (stereo not shown) [M, 1-Benzyl-2-methyl-5-(5-methyl-3-oxo-4,5-dihydro-2H-6-pyridazinyl)-benzimidazole] | -57 mgm Hg | -48 | > 110 | 106 |  | -33 | > 62 | 123 |  | -37 | 
